Measured values published in the supplement of paper PMC11208160.

Experiment: recombinant UMI read abundance after kanamycin selection (control-corrected) (log10(CPM+1)); higher = more efficient recombination; extreme values may be limits of the assay; sequences stand for … in AGTGCAGAGAAAATCGGCCAGTTTTCTCTGCCTGCAGTCCGCATGCCGTGGGACCCCTTGGGTTCTAACCTGTTGCCTAGATTTATGCAGCGGACTGCCTTTCTCCCAAAGTGATAAACCGG…AGGTTGGTTTCACT; site = the 11-nt donor
Method in brief: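 Sequencing read counts were converted to CPM, averaged over two replicates and scaled by control-derived factors. Results are given as log10(CPM+1). The reads covered the donor–target junction of recombinant UMIs from a pooled Escherichia coli screen of donor and donor-binding-loop pairs for the IS621 bridge recombinase.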
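Also: IS621 bridge recombinase in Escherichia coli cells against a fixed T5 target plasmid.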

Sequence: TCGTCACCATGGACCGGTTTTCCCGGTAATCCGTATTTGTG (site TCGTCACCTCA)
- recombinant UMI read abundance (log10): 0.0129

Sequence: TCGTGACCATGGACCGGTTTTCCCGGTAATCCGTATTTGCA (site TCGTGACCTTG)
- recombinant UMI read abundance (log10): 0

Sequence: TCGTTCCCATGGACCGGTTTTCCCGGTAATCCGTATTTGAC (site TCGTTCCCTGT)
- recombinant UMI read abundance (log10): 0

Sequence: TCTAAAGCATGGACCGGTTTTCCCGGTAATCCGTATTTGAT (site ACTAAAGCTAT)
- recombinant UMI read abundance (log10): 0

Sequence: TCTAAAGCATGGACCGGTTTTCCCGGTAATCCGTATTTGAT (site CCTAAAGCTAT)
- recombinant UMI read abundance (log10): 0

Sequence: TCTAAAGCATGGACCGGTTTTCCCGGTAATCCGTATTTGAT (site GCTAAAGCTAT)
- recombinant UMI read abundance (log10): 0

Sequence: TCTAAAGCATGGACCGGTTTTCCCGGTAATCCGTATTTGAT (site TCTAAAGCTAT)
- recombinant UMI read abundance (log10): 0.373

Sequence: TCTAATTCATGGACCGGTTTTCCCGGTAATCCGTATTTGAA (site TCTAATTCTTT)
- recombinant UMI read abundance (log10): 0

Sequence: TCTAGACCATGGACCGGTTTTCCCGGTAATCCGTATTTGCC (site TCTAGACCTGG)
- recombinant UMI read abundance (log10): 0

Sequence: TCTATGCCATGGACCGGTTTTCCCGGTAATCCGTATTTGTT (site TCTATGCCTAA)
- recombinant UMI read abundance (log10): 0.00238

Sequence: TCTGATACATGGACCGGTTTTCCCGGTAATCCGTATTTGCT (site TCTGATACTAG)
- recombinant UMI read abundance (log10): 0

Sequence: TCTGCAACATGGACCGGTTTTCCCGGTAATCCGTATTTGAA (site TCTGCAACTTT)
- recombinant UMI read abundance (log10): 0.00363

Sequence: TCTGCACCATGGACCGGTTTTCCCGGTAATCCGTATTTGGA (site TCTGCACCTTC)
- recombinant UMI read abundance (log10): 0.0216

Sequence: TCTGCAGCATGGACCGGTTTTCCCGGTAATCCGTATTTGAA (site TCTGCAGCTTT)
- recombinant UMI read abundance (log10): 0.00333

Sequence: TCTGCTGCATGGACCGGTTTTCCCGGTAATCCGTATTTGGC (site TCTGCTGCTGC)
- recombinant UMI read abundance (log10): 0

Sequence: TCTTACCCATGGACCGGTTTTCCCGGTAATCCGTATTTGGA (site TCTTACCCTTC)
- recombinant UMI read abundance (log10): 0.0207

Sequence: TCTTACTCATGGACCGGTTTTCCCGGTAATCCGTATTTGCA (site TCATACTCTTG)
- recombinant UMI read abundance (log10): 0.465

Sequence: TCTTACTCATGGACCGGTTTTCCCGGTAATCCGTATTTGCA (site TCCTACTCTTG)
- recombinant UMI read abundance (log10): 1.09

Sequence: TCTTACTCATGGACCGGTTTTCCCGGTAATCCGTATTTGCA (site TCGTACTCTTG)
- recombinant UMI read abundance (log10): 0.946

Sequence: TCTTACTCATGGACCGGTTTTCCCGGTAATCCGTATTTGCA (site TCTTACTCTTG)
- recombinant UMI read abundance (log10): 0.535

Sequence: TCTTATACATGGACCGGTTTTCCCGGTAATCCGTATTTGCT (site TCTTATACTAG)
- recombinant UMI read abundance (log10): 0.00302

Sequence: TCTTATCCATGGACCGGTTTTCCCGGTAATCCGTATTTGGA (site TCTTATCCTTC)
- recombinant UMI read abundance (log10): 0.0232

Sequence: TCTTCCCCATGGACCGGTTTTCCCGGTAATCCGTATTTGTA (site TATTCCCCTTA)
- recombinant UMI read abundance (log10): 0.0172

Sequence: TCTTCCCCATGGACCGGTTTTCCCGGTAATCCGTATTTGTA (site TCTTCCCCTTA)
- recombinant UMI read abundance (log10): 0

Sequence: TCTTCCCCATGGACCGGTTTTCCCGGTAATCCGTATTTGTA (site TGTTCCCCTTA)
- recombinant UMI read abundance (log10): 0.00596

Sequence: TCTTCCCCATGGACCGGTTTTCCCGGTAATCCGTATTTGTA (site TTTTCCCCTTA)
- recombinant UMI read abundance (log10): 0.00951

Sequence: TCTTGCCCATGGACCGGTTTTCCCGGTAATCCGTATTTGAT (site ACTTGCCCTAT)
- recombinant UMI read abundance (log10): 0.00765

Sequence: TCTTGCCCATGGACCGGTTTTCCCGGTAATCCGTATTTGAT (site CCTTGCCCTAT)
- recombinant UMI read abundance (log10): 0.0026

Sequence: TCTTGCCCATGGACCGGTTTTCCCGGTAATCCGTATTTGAT (site GCTTGCCCTAT)
- recombinant UMI read abundance (log10): 0.00287

Sequence: TCTTGCCCATGGACCGGTTTTCCCGGTAATCCGTATTTGAT (site TCTTGCCCTAT)
- recombinant UMI read abundance (log10): 0.0104

Sequence: TCTTTAGCATGGACCGGTTTTCCCGGTAATCCGTATTTGCA (site TCTTTAGCTTG)
- recombinant UMI read abundance (log10): 0

Sequence: TGAAAGACATGGACCGGTTTTCCCGGTAATCCGTATTTGTA (site TGAAAGACTTA)
- recombinant UMI read abundance (log10): 2.37
